Laboratory results reported in ChEMBL document CHEMBL2010775, “Anti-proliferative effects of the novel ceramide analog (S)-2-(benzylideneamino)-3-hydroxy-N-tetrade-cylpropanamide in chemoresistant cancer” (2012).
Calls of active or inactive are those of the source. The calls are words filed in the database; no cut-off is given here.

Experiments:
Homo sapiens [1] = organism: Homo sapiens; test: Potentiation of etoposide-induced antiproliferative activity against human MCF-7TN-R cells after 24 hrs by MTT assay; format: functional, cell-based
MDA-MB-468 = test: Antiproliferative activity against human MDA-MB-468 cells assessed as decrease in Ki-67 staining after 48 hrs by immunofluorescence staining; format: functional; design: scale not given: the % may be the effect or the level left
Homo sapiens [2] = organism: Homo sapiens; test: Potentiation of doxorubicin-induced antiproliferative activity against human MCF-7TN-R cells after 24 hrs by MTT assay; format: functional, cell-based
[3] = Antiproliferative activity against human MCF-7TN-R cells assessed as decrease in Ki-67 staining after 48 hrs by immunofluorescence staining; format: functional; design: scale not given: the % may be the effect or the level left
Homo sapiens [4] = organism: Homo sapiens; test: Induction of apoptosis in human MCF-7TN-R cells assessed as decrease in viable cells after 48 hrs by DAPI staining method relative to control; format: functional, cell-based
MDA-MB-231 = test: Antiproliferative activity against human MDA-MB-231 cells assessed as decrease in Ki-67 staining after 48 hrs by immunofluorescence staining; format: functional; design: scale not given: the % may be the effect or the level left

SMILES | Activity (Homo sapiens [1]) | Activity (MDA-MB-468) [%] | Activity (Homo sapiens [2]) | Activity [3] [%] | Activity (Homo sapiens [4]) | Activity (MDA-MB-231) [%]
CCCCCCCCCCCCC/C=C/[C@@H](O)[C@H](CO)NC(=O)CCCCCCC | Active | 29.08 | Active | 17.19 | Active | 46.6
CCCCCCCCCCCCCCNC(=O)[C@H](CO)/N=C/c1ccccc1 | Active | 25.19 | Active | 19.28 | Active | 74.6
